Consider six compounds from article PMC7931236, “Nonclassical antagonism between human lysozyme and AMPs against Pseudomonas aeruginosa” (FEBS Open Bio, 2021).

Values after ≈ are worked out from the molar mass of the structure shown. Like-named read-outs stand apart in the source and are kept apart here. Where a SMILES comes first, the peptide text is derived from it. Bridges are numbered along the chain shown (N, C = ends). Where no end group is shown, it is not given here.

Assay [1] has as its system P. aeruginosa strain Xen05. Type of assay: cell-based, Pseudomonas aeruginosa. Conditions: for Interaction with hLYS against mucoid strain Xen05: class by FICI, checkerboard with hLYS. The procedure: (§1) Checkerboard, or 2‐D MIC, assays were performed analogous to the single agent dose–response studies above, except that 1 : 2 serial dilutions of hLYS were made across the rows of a 96‐well plate, and 1 : 2 serial dilutions of the AMP were made down the columns of the same plate, such that each well contained a unique concentration mixture of the two agents. Controls without treatment (growth control) and without bacteria (sterility control) were included on all plates. Assays were repeated as three independent trials (biological replicates), and results are the average of all measurements.
(§2) To quantify antibacterial interactions, fractional inhibitory concentrations (FIC) and FIC index values (FICI) were calculated as described elsewhere, though in this case using EC50 values in place of conventional growth/no growth visual observations. Briefly, the FIC for one agent is the ratio of its […]. The corresponding FIC values for the two agents in each row and column, respectively, of a checkerboard plate may be summed, and the lowest FIC sum on the plate is designated the FICI.
(§3) Based on the EC50 values of AMP monotherapies, we designed checkerboard assays wherein antibacterial interactions between hLYS and each AMP were quantified. Classical drug interactions such as synergy, additivity, or antagonism manifest characteristic trends across a given checkerboard assay plate, where FICI < 0.5 is defined as synergy, 0.5 ≤ FICI < 4 is defined as additivity, and FICI ≥ 4 is defined as antagonism. Nonclassical interactions, as observed in some of our checkerboard results, might include a concentration‐dependent switch from synergy (or additivity) to antagonism. In extreme cases, we observed inversion of the dose–response curves for specific combinations and concentration ranges of our antibacterial agents, as discussed below.

The test system of assay [2] is P. aeruginosa strain H1001. Type of assay: cell-based, Pseudomonas aeruginosa. The note with it: for Interaction with hLYS against nonmucoid strain H1001: class by FICI, checkerboard with hLYS. The protocol:
as §1, §2, §3

In assay [3] the test system is P. aeruginosa strain Xen05. The procedure: (§4) The mucoid bioluminescent P. aeruginosa strain Xen05 was purchased from Caliper life Sciences, Inc. The nonmucoid bioluminescent strain H1001 was the kind gift of Robert Hancock (University of British Columbia, Vancouver, BC, Canada). Both strains were stored as glycerol stocks at −80 °C. Recombinant hLYS and freeze‐dried Micrococcus luteus were purchased from Sigma Millipore (Burlington, MA, USA). Protegrin 1 AMP (PTG1) and HB71 peptides (> 95% purity) were obtained from Peptide 2.0. LL‐37, Melittin, and Tet009 peptides (> 95% purity) were purchased from GenScript (Piscataway, NJ, USA). Human beta defensin 3 AMP (hBD3) peptide was purchased from AnaSpec. Peptide stock solutions were stored at −20 °C. All other reagents and materials were purchased from Fisher Scientific (Waltham, MA, USA).
(§5) We analyzed the dose–response potency of each AMP against both strains via a well‐validated luminescence assay. Hundred microlitre of exponential phase cells (5 × 10^6 cells/mL) in dextrose/tris (DT) buffer (20 mM dextrose, 100 mM Tris, pH 7.4) were incubated with a 1 : 2 dilution series of each AMP in white, flat‐bottomed, 96‐well plates at 37 °C for 4 h. Culture luminescence was then quantified by imaging with a CCD camera (Bio‐Rad ChemiDoc XRS System, Hercules, CA, USA). Measurements were normalized to the no‐treatment controls on the same plate, and potency was quantified by a 3‐parameter logistic regression of luminescence versus AMP concentration, yielding EC50 values (Fig. S1). Importantly, the luminescence of these P. aeruginosa strains is known to correlate with bacterial viability. Assays were done in technical triplicate or quadruplicate and repeated at least twice.

Assay [4] deals with P. aeruginosa strain H1001. The procedure:
as §4, §5

The mark [5] stands for this setting: AMP combined with hLYS, FIC from EC50 values (50% luminescence reduction), lowest FIC sum on plate, three independent trials.
The mark [6] stands for this setting: Fig. S1 panels A-F, M, single agent dose response, technical triplicate or quadruplicate, repeated at least twice.
The mark [7] stands for this setting: single agent, luminescence, DT buffer (20 mM dextrose, 100 mM Tris, pH 7.4), 5 × 10^6 cells/mL, 37 °C, 4 h, 3-parameter logistic regression, technical triplicate or quadruplicate, repeated at least twice.
The mark [8] stands for this setting: Fig. S1 panels G-L, N, single agent dose response, technical triplicate or quadruplicate, repeated at least twice.

In the case of `CC[C@H](C)[C@H](NC(=O)[C@H](CCCCN)NC(=O)[C@H](CCC(=O)O)NC(=O)[C@H](CCCCN)NC(=O)[C@H](CO)NC(=O)[C@H](CCCCN)NC(=O)[C@H](CCCNC(=N)N)NC(=O)[C@H](Cc1ccccc1)NC(=O)[C@H](Cc1ccccc1)NC(=O)[C@H](CC(=O)O)NC(=O)CNC(=O)[C@H](CC(C)C)NC(=O)[C@@H](N)CC(C)C)C(=O)NCC(=O)N[C@@H](CCCCN)C(=O)N[C@@H](CCC(=O)O)C(=O)N[C@@H](Cc1ccccc1)C(=O)N[C@@H](CCCCN)C(=O)N[C@@H](CCCNC(=N)N)C(=O)N[C@H](C(=O)N[C@H](C(=O)N[C@@H](CCC(N)=O)C(=O)N[C@@H](CCCNC(=N)N)C(=O)N[C@H](C(=O)N[C@@H](CCCCN)C(=O)N[C@@H](CC(=O)O)C(=O)N[C@@H](Cc1ccccc1)C(=O)N[C@@H](CC(C)C)C(=O)N[C@@H](CCCNC(=N)N)C(=O)N[C@@H](CC(N)=O)C(=O)N[C@@H](CC(C)C)C(=O)N[C@H](C(=O)N1CCC[C@H]1C(=O)N[C@@H](CCCNC(=N)N)C(=O)N[C@H](C(=O)N[C@@H](CCC(=O)O)C(=O)N[C@@H](CO)C(=O)O)[C@@H](C)O)C(C)C)[C@@H](C)CC)C(C)C)[C@@H](C)CC` [LL37], the “FICI Xen05” value in assay [1] (setting [5]) worked out at 0.5 ± 0.2. The “FICI H1001” value in assay [2] (setting [5]) was 0.5 ± 0.2. The “95% confidence intervals for EC50 values, Xen05” value (“95% confidence intervals … Xen05” below) in assay [3] (setting [6]) lay in the range of 4.8 to 5.1 µg/mL. Moreover, the “EC50 Xen05” value in assay [3] (setting [7]) came to 5.0 µg/mL (≈ 1.11 µM). Besides, the “95% confidence intervals for EC50 values, H1001” value (from here on “95% confidence intervals … H1001”) in assay [4] (setting [8]) is 5.7 to 6.6 µg/mL. In assay [4] (setting [7]), the “EC50 H1001” value is 6.1 µg/mL (≈ 1.36 µM).
Regarding `CC(C)C[C@H](NC(=O)[C@H](CCCNC(=N)N)NC(=O)CNC(=O)CNC(=O)[C@@H](N)CCCNC(=N)N)C(=O)N[C@H]1CSSC[C@@H](C(=O)N[C@H](C(=O)NCC(=O)N[C@@H](CCCNC(=N)N)C(=O)O)C(C)C)NC(=O)[C@H](C(C)C)NC(=O)[C@@H]2CSSC[C@H](NC(=O)[C@H](Cc3ccc(O)cc3)NC1=O)C(=O)N[C@@H](CCCNC(=N)N)C(=O)N[C@@H](CCCNC(=N)N)C(=O)N[C@@H](CCCNC(=N)N)C(=O)N[C@@H](Cc1ccccc1)C(=O)N2` [PTG‐1] (H-RGGRLCYCRRRFCVCVGR-OH; disulfide 6-15, 8-13 (inferred); N-terminus and C-terminus assumed), the “Interaction with hLYS against mucoid strain Xen05” value in assay [1] was “synergy (FICI < 0.5 is defined as synergy)”. In addition, in assay [2], the “Interaction with hLYS against nonmucoid strain H1001” value was “synergy (FICI < 0.5 is defined as synergy)”. Besides, in assay [3] (strain Xen05, 4 h), the “95% confidence intervals … Xen05” value is 1.1 to 1.2 µg/mL. The “EC50 Xen05” value in assay [3] (strain Xen05, 4 h, pH 7.4) amounted to 1.1 µg/mL (≈ 0.51 µM). For the same compound, the “95% confidence intervals … H1001” value in assay [4] (strain H1001, 4 h) fell in the range of 1.6 to 1.8 µg/mL. For the same compound, the “EC50 H1001” value in assay [4] (strain H1001, 4 h, pH 7.4) turned out to be 1.7 µg/mL (≈ 0.788 µM).
FAKKLAKKLKKLAKKLAK [HB71]: the “95% confidence intervals … Xen05” value in assay [3] (setting [6]) fell in the range of 1.4 to 1.8 µg/mL. In addition, the “EC50 Xen05” value in assay [3] (setting [7]) is 1.6 µg/mL. In addition, in assay [4] (setting [7]), the “EC50 H1001” value came to 2.6 µg/mL.
As to “GIINTLQKYYCRVRGGRCAVLSCLPKEEQIGKCSTRGRKCCRRKK (disulfide 11-40, 18-33, 23-41 (inferred)) [hBD3]”, the “Interaction with hLYS against mucoid strain Xen05” value in assay [1] was “additivity (0.5 ≤ FICI < 4 is defined as additivity)”. Moreover, the “Interaction with hLYS against nonmucoid strain H1001” value in assay [2] is recorded as “synergy (FICI < 0.5 is defined as synergy)”. In addition, the “95% confidence intervals … Xen05” value in assay [3] (strain Xen05, 4 h) fell in the range of 5.5 to 6.5 µg/mL. The “EC50 Xen05” value in assay [3] (strain Xen05, 4 h, pH 7.4) was 6.0 µg/mL. The “95% confidence intervals … H1001” value in assay [4] (strain H1001, 4 h) was 6.9 to 7.1 µg/mL. Moreover, the “EC50 H1001” value in assay [4] (strain H1001, 4 h, pH 7.4) was 7.0 µg/mL.
As to RRWKIVVIRWRR [Tet009], the “95% confidence intervals … Xen05” value in assay [3] (setting [6]) lay within 1.4 to 1.5 µg/mL. In addition, the “EC50 Xen05” value in assay [3] (setting [7]) was found to be 1.5 µg/mL. The “95% confidence intervals … H1001” value in assay [4] (setting [8]) lay in the range of 2.5 to 2.9 µg/mL. Further, in assay [4] (setting [7]), the “EC50 H1001” value is 2.7 µg/mL.
On to human lysozyme [hLYS], for which the “95% confidence intervals … Xen05” value in assay [3] (setting [6]) was 800 to 1200 µg/mL. Further, the “EC50 Xen05” value in assay [3] (setting [7]) is 990 µg/mL. Besides, the “95% confidence intervals … H1001” value in assay [4] (setting [8]) was 700 to 1100 µg/mL. The “EC50 H1001” value in assay [4] (setting [7]) worked out at 890 µg/mL.
